Active and inactive are the calls of the source.
How the values were obtained:
[1] = human group III sPLA2 inhibitors, dose response, biochemical, QFRET, IC50 (AID 743457);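 also: green fluorescence rise as the enzyme cleaves BODIPY PC-A2 in liposomes; potency for inhibition of the enzyme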
[2] = NIH-3T3 fibroblast cytotoxicity, dose response, cytotoxicity control, cell-based, fluorescence, Alamar Blue, secondary assay (AID 2327); assay type: functional;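 also: NIH-3T3 mouse fibroblasts cultured with fluconazole at 8 µg/mL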
[3] = Luminescence Cell-Based Dose Retest to Confirm Inhibitors of Cancer Stem Cells. [Related pubchem assays (depositor defined):AID2717, AID2721]; assay type: functional, Homo sapiens; conditions: Homo sapiens
[4] = C. albicans growth with fluconazole, confirmation, fluorescence, retest (AID 2467); assay type: functional, cell-based
[5] = biological target: Potassium channel subfamily K member 9 (Homo sapiens, UniProt Q9NPC2); experiment: TASK3 (KCNK9) channel inhibitors, thallium flux, SAR follow-up, selectivity assay for TASK1 inhibitor project, cell-based, FluxOR thallium flux, concentration-response (AID 652211); assay type: functional;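 also: potency is for inhibitors of the channel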
Potassium channel subfamily K member 9, sequence (Q9NPC2 whole entry, the tested form may be a part): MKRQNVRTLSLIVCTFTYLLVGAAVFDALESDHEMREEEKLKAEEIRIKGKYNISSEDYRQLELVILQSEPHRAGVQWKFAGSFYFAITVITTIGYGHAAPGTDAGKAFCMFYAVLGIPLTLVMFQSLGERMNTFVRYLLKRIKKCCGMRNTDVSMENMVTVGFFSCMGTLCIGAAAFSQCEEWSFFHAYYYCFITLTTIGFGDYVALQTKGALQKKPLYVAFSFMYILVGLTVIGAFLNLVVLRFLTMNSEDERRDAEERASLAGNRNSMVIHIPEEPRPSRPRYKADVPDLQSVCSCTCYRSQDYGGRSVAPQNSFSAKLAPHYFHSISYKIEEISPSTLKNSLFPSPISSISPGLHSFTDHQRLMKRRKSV

[6] = biological target: Potassium channel subfamily K member 3 (Rattus norvegicus, UniProt O54912); experiment: SAR analysis for the identification of selective inhibitors of the two-pore domain potassium channel TASK1(KCNK3):Automated Electrophysiology.; assay type: functional
Potassium channel subfamily K member 3 (Rattus norvegicus, UniProt O54912), sequence (O54912 whole entry, the tested form may be a part): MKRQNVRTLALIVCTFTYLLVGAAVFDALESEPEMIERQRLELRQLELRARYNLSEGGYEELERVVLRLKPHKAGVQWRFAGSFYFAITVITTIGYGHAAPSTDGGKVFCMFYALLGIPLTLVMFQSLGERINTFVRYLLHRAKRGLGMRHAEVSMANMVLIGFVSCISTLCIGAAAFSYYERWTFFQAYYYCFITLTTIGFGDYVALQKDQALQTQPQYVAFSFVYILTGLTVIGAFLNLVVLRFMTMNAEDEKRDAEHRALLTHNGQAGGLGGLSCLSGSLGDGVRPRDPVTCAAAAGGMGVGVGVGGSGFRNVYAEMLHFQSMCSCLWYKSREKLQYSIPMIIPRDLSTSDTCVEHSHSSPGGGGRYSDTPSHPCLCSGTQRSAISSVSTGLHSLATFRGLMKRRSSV

[7] = biological target: Potassium channel subfamily K member 3 (Homo sapiens, UniProt O14649); experiment: TASK1 (KCNK3) potassium channel inhibitors, SAR follow-up, CHO cells, FluxOR thallium flux (AID 652212); assay type: functional
Potassium channel subfamily K member 3 (Homo sapiens, UniProt O14649), sequence (O14649 whole entry, the tested form may be a part): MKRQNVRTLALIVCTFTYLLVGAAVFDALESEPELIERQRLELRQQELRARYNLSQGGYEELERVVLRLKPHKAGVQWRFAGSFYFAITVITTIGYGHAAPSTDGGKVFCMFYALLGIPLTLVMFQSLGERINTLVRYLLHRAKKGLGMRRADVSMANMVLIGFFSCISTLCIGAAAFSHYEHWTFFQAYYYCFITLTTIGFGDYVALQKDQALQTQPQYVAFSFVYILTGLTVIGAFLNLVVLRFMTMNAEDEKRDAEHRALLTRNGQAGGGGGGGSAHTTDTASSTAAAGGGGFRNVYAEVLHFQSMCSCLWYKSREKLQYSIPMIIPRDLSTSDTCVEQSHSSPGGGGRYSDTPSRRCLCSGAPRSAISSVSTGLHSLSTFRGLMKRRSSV

[8] = biological target: Disintegrin and metalloproteinase domain-containing protein 17 (Homo sapiens, UniProt P78536); experiment: exosite inhibitors of ADAM17, dose response, biochemical (AID 743260)
Disintegrin and metalloproteinase domain-containing protein 17, sequence (P78536 whole entry, the tested form may be a part): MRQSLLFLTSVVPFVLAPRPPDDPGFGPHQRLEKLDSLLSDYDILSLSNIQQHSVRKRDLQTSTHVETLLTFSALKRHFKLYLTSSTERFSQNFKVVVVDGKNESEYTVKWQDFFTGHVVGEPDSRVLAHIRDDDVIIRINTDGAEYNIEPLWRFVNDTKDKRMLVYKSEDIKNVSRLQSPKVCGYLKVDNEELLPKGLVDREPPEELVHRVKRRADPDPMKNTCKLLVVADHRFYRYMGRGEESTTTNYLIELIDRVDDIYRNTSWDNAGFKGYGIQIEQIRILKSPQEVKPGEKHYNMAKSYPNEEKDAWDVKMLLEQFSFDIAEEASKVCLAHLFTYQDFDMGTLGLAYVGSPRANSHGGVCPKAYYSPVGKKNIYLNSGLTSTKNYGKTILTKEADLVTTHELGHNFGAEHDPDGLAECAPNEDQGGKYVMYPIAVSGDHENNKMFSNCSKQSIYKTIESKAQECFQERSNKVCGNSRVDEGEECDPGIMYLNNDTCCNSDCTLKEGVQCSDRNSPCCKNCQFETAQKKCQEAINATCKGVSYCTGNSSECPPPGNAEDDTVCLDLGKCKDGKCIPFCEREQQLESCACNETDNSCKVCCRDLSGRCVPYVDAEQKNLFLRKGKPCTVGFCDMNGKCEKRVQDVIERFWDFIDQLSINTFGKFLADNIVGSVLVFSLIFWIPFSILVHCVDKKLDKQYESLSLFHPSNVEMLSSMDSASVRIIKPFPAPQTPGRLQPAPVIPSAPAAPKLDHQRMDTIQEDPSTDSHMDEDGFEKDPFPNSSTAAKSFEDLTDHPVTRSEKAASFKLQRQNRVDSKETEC

[9] = ADAM10 protease inhibitors, dose response, selectivity assay for ADAM17 exosite inhibitor project, biochemical, FRET peptide substrate, recombinant human ADAM10 (AID 743259);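 also: ADAM10 enzyme cleaving a FRET peptide substrate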
[10] = biological target: T1, Mannose-6-phosphate isomerase (Homo sapiens, UniProt P34949); experiment: inhibitors of human PMI, primary screen, biochemical, fluorescence intensity, coupled assay (AID 1209)
T1 sequence (P34949 whole entry): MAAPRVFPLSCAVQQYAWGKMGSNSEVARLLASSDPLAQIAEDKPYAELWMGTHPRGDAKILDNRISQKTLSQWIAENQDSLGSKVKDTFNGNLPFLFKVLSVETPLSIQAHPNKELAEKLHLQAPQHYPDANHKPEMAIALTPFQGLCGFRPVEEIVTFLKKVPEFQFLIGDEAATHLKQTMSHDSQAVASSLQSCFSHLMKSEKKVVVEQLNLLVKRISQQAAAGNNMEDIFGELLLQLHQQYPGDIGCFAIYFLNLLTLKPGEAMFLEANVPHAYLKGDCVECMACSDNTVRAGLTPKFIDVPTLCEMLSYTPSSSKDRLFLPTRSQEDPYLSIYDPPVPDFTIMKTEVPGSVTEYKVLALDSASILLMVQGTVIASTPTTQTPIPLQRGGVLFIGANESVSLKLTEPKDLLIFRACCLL

[11] = EDANS-DABCYL fluorescence interference, concentration series, dose response, artefact control for kallikrein-7 zymogen activator project, biochemical, fluorescence intensity, triplicate (AID 720493)
T-cell = experiment: inhibitors of CD8+ T cell–vesicle binding, dose response, mouse 2C CD8+ T cells, flow cytometry (AID 485284); assay type: functional
Kallikrein-7 = Kallikrein-7 (Homo sapiens, UniProt P49862); experiment: Fluorescence Intensity-based biochemical primary high throughput dose response assay to identify activators of kallikrein-7 (K7) zymogen.
Kallikrein-7, sequence (P49862 whole entry): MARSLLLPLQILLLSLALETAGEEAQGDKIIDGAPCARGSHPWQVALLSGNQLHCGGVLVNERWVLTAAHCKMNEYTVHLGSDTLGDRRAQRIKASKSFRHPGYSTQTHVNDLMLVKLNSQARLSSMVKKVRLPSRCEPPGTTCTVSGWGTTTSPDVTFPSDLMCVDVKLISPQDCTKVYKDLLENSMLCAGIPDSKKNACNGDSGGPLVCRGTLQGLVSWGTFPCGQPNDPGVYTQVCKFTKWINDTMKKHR

A549 = experiment: A549 cell toxicity, dose response, cytotoxicity control, plate reader, cherry-pick samples (AID 687028); assay type: functional, cell-based; conditions: Homo sapiens
[12] = control 3'UTR Renilla luciferase suppression, dose response, counter-screen for Shn3 inhibitor project, cell-based, Clone20-Shn3RL, cherry-picked (AID 624133); assay type: functional
BHK-21 = experiment: BHK-21 cell toxicity, dose response, cytotoxicity control, plate reader, cherry-pick samples (AID 687030); assay type: functional, cell-based; conditions: Mesocricetus auratus
INS1 = experiment: beta cell apoptosis inhibitors, cytokine rescue, dose response, luminescence, retest (AID 449756); assay type: functional, cell-based; conditions: Rattus norvegicus;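 also: cell death triggered by IL-1 beta plus TNF-alpha plus IFN-gamma mixture; protective hits raise ATP signal compared with cytokine alone wells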
[13] = Shn3 3'UTR reporter inhibitors, dose response, cell-based, Clone20 osteoblasts, firefly luciferase, cherry-picked (AID 624132); assay type: functional;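 also: firefly luciferase luminescence from reporter carrying the Shn3 3'UTR in osteoblasts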
[14] = HepG2 cell cytotoxicity, dose response, cytotoxicity control for Shn3 inhibitor project, CellTiter-Glo, cherry-picked (AID 624134); assay type: functional, cell-based
[15] = cytotoxicity in OV-90 ovarian cancer cells, dose response, PAX8 inhibitor project, cell-based, plate reader, dry powder, SA8 (AID 743149); assay type: functional
[16] = cytotoxicity dependent on PAX8, dose response, cell-based, plate reader, dry powder (AID 743049); assay type: functional
[17] = inhibitors of HIV Env-driven cell fusion, dose response, cherry-pick (AID 652057); assay type: functional, cell-based
[18] = cytotoxicity in COV434 cells, dose response, cytotoxicity control for PAX8 inhibitor project, cell-based, plate reader, dry powder, SA7 (AID 743145); assay type: functional
[19] = NIH:OVCAR-3 ovarian cancer cell cytotoxicity, dose response, PAX8 inhibitor project, plate reader, dry powder samples (AID 743044); assay type: functional, cell-based
[20] = PAX5 activity inhibitors, dose response, selectivity assay for PAX8 inhibitor project, cell-based, plate reader, dry powder samples (AID 743047); assay type: functional;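 also: HEK293 cells carrying a Pax5 driven CD19 promoter luciferase reporter; potency of inhibitors that lower reporter luminescence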
Paired box protein Pax-8 = Paired box protein Pax-8 (Homo sapiens, UniProt Q06710); experiment: inhibitors of PAX8-driven TPO luciferase reporter, dose response, RMG-I cells, cherry-pick (AID 687027); assay type: functional, cell-based;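 also: luciferase reporter driven by Pax8 target thyroperoxidase promoter measured by SteadyGlo luminescence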
Paired box protein Pax-8, sequence (Q06710 whole entry): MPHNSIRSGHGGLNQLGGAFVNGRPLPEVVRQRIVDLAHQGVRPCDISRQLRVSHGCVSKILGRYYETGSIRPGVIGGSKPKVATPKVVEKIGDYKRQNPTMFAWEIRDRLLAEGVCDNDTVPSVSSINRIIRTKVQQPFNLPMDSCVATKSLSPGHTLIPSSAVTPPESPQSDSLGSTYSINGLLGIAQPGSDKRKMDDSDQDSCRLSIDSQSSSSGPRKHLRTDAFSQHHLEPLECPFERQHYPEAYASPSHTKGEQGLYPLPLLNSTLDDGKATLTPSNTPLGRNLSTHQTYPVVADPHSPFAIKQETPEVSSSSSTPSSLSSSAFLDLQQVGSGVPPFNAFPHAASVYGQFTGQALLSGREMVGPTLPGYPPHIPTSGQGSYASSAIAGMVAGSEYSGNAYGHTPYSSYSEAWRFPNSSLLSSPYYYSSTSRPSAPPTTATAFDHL

[21] = cytotoxicity in OVCAR8 ovarian cancer cells, dose response, PAX8 project, cell-based, plate reader, dry powder samples (AID 743197); assay type: functional; conditions: OVCAR-8
[22] = cytotoxicity in OVCAR4 cells, dose response, cytotoxicity control for PAX8 inhibitor project, cell-based, plate reader, dry powder, SA11 (AID 743150); assay type: functional; conditions: OVCAR-4
[23] = PAX2 cell-based inhibition, dose response, selectivity assay for PAX8 inhibitor project, plate reader, dry powder samples (AID 743048); assay type: functional;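 also: HEK293 cells carrying a WT1 promoter luciferase reporter driven by expressed Pax2; potency is for inhibition of Pax2 driven reporter signal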
HeLa = experiment: HeLa cell cytotoxicity, dose response, cytotoxicity control, ATP luminescence, cherry-pick samples (AID 687004); assay type: functional, cell-based; conditions: Homo sapiens
[24] = HEK293 Cytotoxicity Assay Measured in Cell-Based System Using Plate Reader - 7071-01_Inhibitor_Dose_CherryPick_Activity_Set2.; assay type: functional
HEK293 = experiment: HEK293T cell cytotoxicity, dose response, cytotoxicity control, ATP luminescence, cherry-pick samples (AID 687005); assay type: functional, cell-based; conditions: Homo sapiens;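 also: cells exposed to compound for 48 hours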
[25] = A2780 ovarian cancer cell cytotoxicity, dose response, cytotoxicity control, plate reader, dry powder samples (AID 743046); assay type: functional, cell-based
[26] = inhibitors of CMV-promoter luciferase reporter, dose response, counter-screen for Pax8 inhibitor project, cell-based, HEK293, luminescence, dry powder (AID 743020); assay type: functional
[27] = non-specific cell cytotoxicity, dose response, cytotoxicity control for PAX8 inhibitor project, plate reader, dry powder samples (AID 743021); assay type: functional, cell-based
[28] = IOSE-T80 ovarian epithelial cell cytotoxicity, dose response, cytotoxicity control for PAX8 inhibitor project, plate reader, dry powder samples (AID 743045); assay type: functional, cell-based
Protein Wnt-3a = Protein Wnt-3a (Mus musculus, UniProt P27467); experiment: SAR analysis of small molecule antagonists of Gli-SUFU in a Wnt3a luminescent reporter assay.; assay type: functional
Protein Wnt-3a, sequence (P27467 whole entry): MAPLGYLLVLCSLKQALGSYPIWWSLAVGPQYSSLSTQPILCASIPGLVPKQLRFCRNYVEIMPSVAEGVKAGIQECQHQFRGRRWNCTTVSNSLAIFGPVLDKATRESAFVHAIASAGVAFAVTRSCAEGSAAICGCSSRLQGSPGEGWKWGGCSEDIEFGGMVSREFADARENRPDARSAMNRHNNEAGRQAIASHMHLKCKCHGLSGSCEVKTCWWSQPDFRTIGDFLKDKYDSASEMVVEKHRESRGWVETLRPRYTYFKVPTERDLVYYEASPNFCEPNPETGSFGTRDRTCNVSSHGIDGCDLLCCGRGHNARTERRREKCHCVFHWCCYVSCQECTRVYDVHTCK

[29] = Late stage assay provider results from the probe development effort to identify selective inhibitors of heat shock protein 90 (HSP90): Absorbance-based cell proliferation assay in MCF7 cells.; assay type: functional
[30] = Late stage assay provider results from the probe development effort to identify selective inhibitors of heat shock protein 90 (HSP90): Absorbance-based cell proliferation assay in SKBR3 cells.; assay type: functional; conditions: SK-BR-3
[31] = HEK293T cell cytotoxicity, dose response, cytotoxicity control, luminescence plate reader, powder samples, set 4 (AID 651863); assay type: functional, cell-based; conditions: HEK293
[32] = biological target: Metabotropic glutamate receptor 3 (Rattus norvegicus, UniProt P31422); experiment: mGlu3 NAM potency via calcium readout, dose response, mGlu3 NAM project, TREx293 cells, Galpha15, calcium flux (AID 651840); assay type: functional
Metabotropic glutamate receptor 3, sequence (P31422 whole entry): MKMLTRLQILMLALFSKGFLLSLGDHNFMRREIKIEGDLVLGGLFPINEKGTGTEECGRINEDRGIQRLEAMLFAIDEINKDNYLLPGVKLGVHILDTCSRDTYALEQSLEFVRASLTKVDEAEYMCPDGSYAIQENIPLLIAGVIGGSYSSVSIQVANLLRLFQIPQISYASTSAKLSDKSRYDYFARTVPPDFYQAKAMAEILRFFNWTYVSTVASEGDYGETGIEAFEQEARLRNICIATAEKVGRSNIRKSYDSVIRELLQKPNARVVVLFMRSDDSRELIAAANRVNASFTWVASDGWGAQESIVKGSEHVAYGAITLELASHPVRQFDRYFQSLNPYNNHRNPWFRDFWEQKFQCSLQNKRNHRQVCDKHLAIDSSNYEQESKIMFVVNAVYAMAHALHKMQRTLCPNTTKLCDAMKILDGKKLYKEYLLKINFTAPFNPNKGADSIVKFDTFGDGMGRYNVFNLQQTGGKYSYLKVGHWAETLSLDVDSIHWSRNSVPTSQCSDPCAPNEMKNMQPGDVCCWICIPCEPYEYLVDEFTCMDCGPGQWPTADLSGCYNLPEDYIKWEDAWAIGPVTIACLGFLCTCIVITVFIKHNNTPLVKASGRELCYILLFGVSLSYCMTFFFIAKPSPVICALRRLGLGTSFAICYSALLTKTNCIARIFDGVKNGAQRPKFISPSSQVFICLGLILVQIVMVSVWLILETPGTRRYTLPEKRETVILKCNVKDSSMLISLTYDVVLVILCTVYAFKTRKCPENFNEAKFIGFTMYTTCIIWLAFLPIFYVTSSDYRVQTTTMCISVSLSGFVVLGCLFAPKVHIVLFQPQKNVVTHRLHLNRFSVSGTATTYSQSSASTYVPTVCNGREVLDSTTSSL

[33] = T. cruzi intracellular amastigote growth inhibition, dose response, imaging, CA-I/72 strain, bovine embryo skeletal muscle, dry powder (AID 651885); assay type: functional, cell-based
[34] = T. cruzi growth inhibition in host cells, dose response, cell-based, plate reader, dry powder, set 2 (AID 652275); assay type: functional
[35] = A549 cell cytotoxicity, dose response, cytotoxicity control, plate reader, cherry-pick, antagonist series (AID 743412); assay type: functional, cell-based
[36] = MC4R antagonists, dose response, counter-screen for LGR2 antagonist project, cell-based, plate reader, cherry pick (AID 743444); assay type: functional;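 also: transfected HEK 293 cells stimulated with alpha-MSH peptide; potency of inhibitors of the alpha-MSH evoked signal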
[37] = LGR2 antagonists, dose response, cell-based, HEK293, CRE-luciferase reporter, cherry pick (AID 743342); assay type: functional
[38] = Cytotoxicity screening for potential Inhibitors of Bacterial Capsule Biogenesis (4).; assay type: functional

Compound: Cc1cc(C)c2nc(NNC(=O)c3cc(-c4cccs4)nc4ccccc34)sc2c1
- IC50 [1]: 53.9 µM (inactive)
- EC50 [2]: 10.7 µM (active)
- AC50 [3]: 2.13 µM (active)
- EC50 [4]: > 38 µM (not active)

Compound: Cc1cccc(C(=O)Nc2cccc(NC(=O)c3ccccc3)c2)c1
- IC50 [5]: 0.36 µM (active)
- IC50 [6]: 0.075 µM (active)
- IC50 [7]: 0.015 µM (active)

Compound: CCOC(=O)c1c(NC(=O)Cn2nc(C(F)F)cc2C(F)F)sc(C)c1C
- IC50 [8]: > 69.5 µM (inactive)
- IC50 [9]: > 69.5 µM (inactive)

Compound: Cc1c2cccn2cc[n+]1C
- IC50 [10]: > 50 µM (not active)
- EC50 [11]: > 7.72 µM (active)
- EC50 (T-cell): 79.2 µM (inactive)
- EC50 (Kallikrein-7): 17.5 µM (inactive)

Compound: CC(=O)NC(c1cc(Cl)c2cccnc2c1O)C(C)C (stereo not given)
- AC50 (A549): 23.5 µM (active)
- AC50 [12]: 2.71 µM (active)
- AC50 (BHK-21): 21.6 µM (active)
- AC50 (INS1): 1.76 µM (active)
- AC50 [13]: 2.96 µM (active)
- AC50 [14]: 5.13 µM (active)

Compound: COc1ccccc1C#Cc1ccc2c(c1)O[C@@H](CN(C)Cc1ccncc1)[C@H](C)CN([C@H](C)CO)S2(=O)=O
- AC50 [15]: 7.34 µM (active)
- AC50 [16]: 4.51 µM (active)
- AC50 [17]: 42.1 µM (active)
- AC50 [18]: 0.0946 nM (active)
- AC50 [19]: 13.3 µM (active)
- AC50 [20]: 9.35 µM (active)
- AC50 (Paired box protein Pax-8): 2.39 µM (active)
- AC50 [21]: 27.7 µM (active)
- AC50 [22]: 11.5 µM (active)
- AC50 [23]: 2.28 µM (active)

Compound: O=S(=O)(c1ccc(F)cc1)N1C[C@@H]2[C@H](c3ccccc31)[C@@H](CO)N2Cc1ccccc1Cl
- AC50 (HeLa): > 47 µM (inactive)
- AC50 [24]: 18.9 µM (active)
- AC50 (HEK293): 18.9 µM (active)

Compound: C[C@@H]1CN([C@H](C)CO)C(=O)c2cc(NC(=O)Nc3ccccc3)ccc2O[C@@H](C)CCCCO[C@@H]1CN(C)Cc1ccc(Cl)c(Cl)c1
- AC50 [25]: 14.9 µM (active)
- AC50 [26]: 43.4 µM (active)
- AC50 [27]: 52.3 µM (active)
- AC50 [19]: 18.4 µM (active)
- AC50 (Paired box protein Pax-8): 4.45 µM (active)
- AC50 [21]: 29.6 µM (active)
- AC50 [28]: 44.5 µM (active)

Compound: CC(C)CNc1cc(NC(=O)c2cccc(F)c2)ncn1
- IC50 (Protein Wnt-3a): > 21.8 µM (inactive)

Compound: Cc1c(Cl)c(=O)oc2c(C)c(OCc3ccccc3)ccc12
- IC50 [29]: > 100 µM (inactive)
- IC50 [30]: > 100 µM (inactive)

Compound: Cc1ccc(S(=O)(=O)NNc2nc(NCC(N)=O)nc3ccccc23)cc1
- AC50 [31]: > 52 µM (inactive)

Compound: COc1ccc(C#Cc2ccc(C(=O)N3CCC(=O)C(C)C3)cc2)cc1 (stereo not given)
- IC50 [32]: 8.95 µM

Compound: C[C@@H]1CN([C@@H](C)CO)C(=O)c2cc(-c3cncnc3)cnc2O[C@H]1CN(C)Cc1ccc(Oc2ccccc2)cc1
- IC50 [33]: > 20 µM (inactive)
- AC50 [34]: 0.403 µM (active)

Compound: C[C@H](CO)N1C[C@H](C)[C@H](CN(C)C(=O)Nc2ccccc2)OCCCC[C@H](C)Oc2ccc(NC(=O)Nc3ccc4c(c3)OCO4)cc2C1=O
- AC50 [35]: > 52 µM (inactive)
- AC50 [36]: 25.4 µM (active)
- AC50 [37]: 36.6 µM (active)

Compound: CC(C)(C)OC(=O)Nc1nc2ccc(C(=O)Nc3ccnc(Br)c3)cc2s1
- CC50 [38]: > 300 µM (inactive)

Reference: ChEMBL document CHEMBL1201862, “PubChem BioAssay data set” (2004)
